In US20210290597A1, “METHOD OF TREATING A CONDITION ASSOCIATED WITH NEURODEGENERATION USING INHIBITORS OF OAT3” (Neuropore Therapies, Inc., priority 2018, published 2021):
“And” between values parts separate entries of the source, which are not always exact repeats. Identical values can stand only once.

How the values were obtained:
[1] = molecular target: T1, OAT3 (Homo sapiens, UniProt Q8TCC7); experiment: Further OAT3 uptake inhibition assay (Table 2); type: cell-based; conditions: human, MDCK-II cells expressing human OAT3, probe 10 μM PAH (p-aminohippurate); compound 1 μM; PAH 10 μM; mean and SD of triplicate
T1 construct: expressed in transfected cells; host or cells: MDCK-II
T1 sequence (Q8TCC7 1-542): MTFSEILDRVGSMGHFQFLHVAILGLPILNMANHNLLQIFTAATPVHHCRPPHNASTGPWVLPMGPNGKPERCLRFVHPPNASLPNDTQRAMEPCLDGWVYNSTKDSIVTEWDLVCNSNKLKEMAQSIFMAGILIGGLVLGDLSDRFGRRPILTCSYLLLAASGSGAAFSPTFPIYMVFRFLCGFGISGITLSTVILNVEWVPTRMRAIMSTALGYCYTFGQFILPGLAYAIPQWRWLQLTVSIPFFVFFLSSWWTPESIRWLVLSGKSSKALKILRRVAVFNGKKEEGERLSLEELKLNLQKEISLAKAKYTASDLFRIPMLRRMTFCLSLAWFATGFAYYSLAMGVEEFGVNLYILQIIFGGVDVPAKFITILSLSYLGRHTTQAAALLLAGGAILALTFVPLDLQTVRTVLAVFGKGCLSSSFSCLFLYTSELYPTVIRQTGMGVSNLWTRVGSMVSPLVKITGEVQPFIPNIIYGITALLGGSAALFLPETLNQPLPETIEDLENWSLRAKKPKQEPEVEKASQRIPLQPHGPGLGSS
Method: (§1) In a further assay, the effects of several other compounds (including compounds 2, 3, and 4) were assessed against OAT3. The assay was carried out using a similar procedure as described above, using para-aminohippurate (PAH) and estrone-3-sulfate (E3S) as the substrates for measuring OAT3-mediated transport. […] MDCK-II cells were grown in 96-well cell culture plates, and the cell plates are maintained at 37° C. in 5% CO2 atmosphere prior to initiation of the transport experiment. MDCK-II cells were maintained in DMEM with low glucose and 10% FBS. Cells passages up to 40 are seeded at 60K±10K cells/well on 96-well, transwell membrane plates approximately 24 hours before transfection. Transport assays were carried out approximately 48 hours after transfection. Radio-labeled para-aminohippurate ([3H]-PAH) and estrone-3-sulfate (E3S) were used as substrates for measuring OAT3-mediated transport, where the transport of the substrate was determined by radiometric detection. Probenecid was used as a reference inhibitor. Transport study samples were run in triplicate.
(§2) For uptake assays, the net transporter-mediated uptake rate (V) of the substrate by each SLC transporter was calculated as follows:
(§3) Transporter-mediated uptake rate(pmol/min/cm^2)=((Cellular accumulation in cells expressing the transporter)−(Mean cellular accumulation in control cells))/Incubation time.
(§4) Percent inhibition was calculated by dividing the transporter-mediated uptake rate in presence of the test article or the reference inhibitor by the transporter-mediated uptake rate in presence of vehicle control:
(§5) Percent inhibition=100−(100×(transporter-mediated uptake rate)with inhibitor/(transporter-mediated uptake rate)vehicle control)
(§6) For uptake assays, statistical analyses using an unpaired t test was performed between transporter-mediated uptake rate or ATP-dependent transport rate of probe substrate with vehicle control and the inhibitor. A p value of <0.05 was considered statistically significant.
(§7) Table 2 summarizes the inhibitory activity of these compounds against OAT3 in the uptake of probe substrate PAH (p-aminohippurate) or E3S (estrone-3-sulfate). The percent inhibition values were determined by testing compounds at a single concentration of 1 μM with a PAH concentration of 10 μM. Data represent the mean and standard deviation of triplicate samples. The IC50 values were calculated by means of a concentration response curve with a compound concentration range of 0.03-10 μM and a probe substrate concentration of 10 μM PAH or 0.1 μM E3S. The percent inhibition at the various concentrations was run in triplicate and the IC50 value was determined by non-linear regression using GraphPad Prism.

[2] = molecular target: T2, human transporter OAT3 (Homo sapiens, UniProt Q8TCC7); experiment: Further OAT3 uptake inhibition assay (Table 2); type: cell-based; conditions: compound 0.03-10 μM
T2 construct: expressed in transfected cells; host or cells: MDCK-II
T2 sequence (Q8TCC7 1-542): T1 sequence (Q8TCC7 1-542)
Method: as §1, §2, §3, §4, §5, §6, §7

[3] = system: glial fibrillary acidic protein (GFAP); experiment: GFAP IHC, L61 ASYN transgenic mice; type: in vivo
Method: Neuroinflammation is also associated with increased expression of glial fibrillary acidic protein (GFAP) in activated astrocytes, which is induced by a variety of molecules including pro-inflammatory mediators released from activated microglia (Saijo et al. 2009). Increased expression of glial fibrillary acidic protein (GFAP) represents astroglial activation and gliosis during neurodegeneration. (Brahmachari et al., 2006). The effects of Compound 1 on GFAP expression were assessed in both L61 ASYN transgenic and non-transgenic mice in a 1 month administration study. After 30 days, the mice were sacrificed, and IHC detection of GFAP was assessed in the harvested brain tissues.
The harvested brain tissues from treated mice were fixed (drop fixed in 4% PFA) and then sectioned into 40 micro thick sections using a vibratome. The representative sections containing the hippocampus were assessed for GFAP with standard immunohistochemistry staining. The general methods used for GFAP immunostaining follow those described in Rockenstein et al., J Neurosci Res. 2002, 68(5):568-78.

[4] = molecular target: T2, human transporter OAT3; experiment: In vitro ion transport assay 1, OAT3-mediated uptake in MDCK-II cells; type: cell-based
Method: To determine the effect of the ion transporter inhibitors on the uptake activity of solute carrier (SLC) ion transporter proteins such as OAT1 and OAT3, an ion transport assay utilizing a polarized monolayer of MDCK-II cells grown on permeable supports was used. The MDCK-II cells were treated to express the transporter of interest (e.g., OAT3 or OAT 1) or were treated with a control vector. 96-well culture plates with both donor and receiver cells containing a monolayer of MDCK-II cells were maintained at 37° C. in 5% CO2 atmosphere. Radio-labeled para-aminohippurate ([3H]-PAH) was used as a substrate for measuring OAT1 and OAT3 mediated transport, where the transport of the substrate was determined by radiometric detection. OAT1-mediated transport was assayed using 2 μM of [3H]-PAH; OAT3-mediated transport was assayed using 10 μM of [3H]-PAH. The probe substrate for OAT1 was 2 μM [3H]-p-aminohippurate. The probe substrate for OAT3 was 10 μM [3H]p-aminohippurate. The reference inhibitor for both assays was 100 μM probenecid. Following pre incubation of the transfected MDCK-II cells in HBSS, [3H]-PAH was added at the concentrations described above. Wells were then treated with either reference inhibitor probeneic acid or with the test compound. Cells transfected with empty vector served as an additional control. […]

- inhibition at 1 μM [1]: 80.3%
- IC50 ([2]; 0.1 μM E3S, read-out: OAT3 inhibition substrate = E3S (IC50)): 0.891 µM
- IC50 ([2]; 10 μM PAH, read-out: OAT3 inhibition substrate = PAH (IC50)): 0.252 µM
- potency against OAT3 compared with potency against OAT1 ([4]; OAT3 vs OAT1, [3H]-PAH uptake): about 20 fold
- IC50 ([4]; assay 1, probe substrate 10 μM [3H]-p-aminohippurate, MDCK-II cells): 0.62 µM and 0.622 µM
Structure (SMILES): O=S(=O)(c1ccc(-n2cn[nH]c2=S)cc1)c1ccc(Cl)c(C(F)(F)F)c1 [Compound 1, 4-(4-((4-chloro-3-(trifluoromethyl)phenyl)sulfonyl)phenyl)-2,4-dihydro-3H-1,2,4-triazole-3-thione]
- GFAP levels, IHC staining intensity in representative images ([3]; 5 mg/kg or 10 mg/kg daily i.p.): reducing cortical levels of GFAP
- GFAP levels, quantification of IHC staining ([3]; 10 mg/kg daily i.p.): reduces the cortical GFAP levels in a statistically significant manner
